Tests used:
EGFR^Del19/T790M/C797S = EGFR^Del19/T790M/C797S (Homo sapiens, UniProt P00533, C797S/DEL746-750/T790M); assay: EGFR inhibitory activity assay (TK-substrate-biotin/ATP, 665/615 ratio); type: biochemical; settings: kinase inhibition
Description: EGFR Inhibitory Activity Assay
(2) The plate was sealed, and centrifuged at 1,000 g for 1 min;
(4) 5 μl of the 2×EGFR protein working solution was added to the 384-well plate from step (2), centrifuged at 1,000 g for 30 s, and allowed to stand at room temperature (mixed thoroughly) for 10 min;
(6) 5 µL of the TK-substrate-biotin and ATP (the mixture prepared in step (5)) was added to the 384-well plate from step (4) to initiate the reaction;
(7) The mixture was centrifuged at 1,000 g for 30 s; the plate was sealed, and allowed to stand (and reacted) at room temperature for 40 min;
(10) The mixture was centrifuged at 1,000 g for 30 s, and allowed to stand (reacted) at room temperature for 1 h;
(§1) Formula of inhibition rate (%): […]
(§2) The nonlinear regression curve (dose response-variable slope) between the value of inhibition rate (%) and the logarithm of compound concentration was fitted with graphpad prism 8.0, the effect dose curve of compound was drawn, and the IC50 value was calculated.

EGFR^L858R/T790M/C797S = EGFR^L858R/T790M/C797S (Homo sapiens, UniProt P00533, C797S/L858R/T790M); assay: as above; type: biochemical; settings: kinase inhibition
In short: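 HTRF kinase assay: enzyme preincubated with compound 10 min at room temperature, then reacted with biotinylated TK substrate and ATP for 40 min at room temperature.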

[1] = biological target: Ba/F3(EGFR^L858R/T790M/C797S) cells (Homo sapiens, UniProt P00533, T790M/C797S/L858R, cells depend on it); assay: Assay of activity on Ba/F3 cells (CTG, 72 h); type: cell-based; settings: read-out: IC50 (nM) Ba/F3 (EGFR^L858R/T790M/C797S)
In short: (§3)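 Ba/F3 cells dependent on each EGFR triple mutant were exposed to 3-fold compound dilutions for 72 h at 37° C, 5% CO2, with CellTiter-Glo luminescence as the read-out.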

ALK = ALK (Homo sapiens, UniProt Q9UM73); assay: Assay of activity on ALK kinase; type: biochemical; settings: kinase inhibition
Description: (§4) Assay of activity on ALK kinase
(§5) (1) A compound stock solution was prepared;
(§6) (2) The compound stock solution was diluted 3× to obtain a compound dilution;
(§7) (5) 5 μl of the 2× kinase working solution was added to the reaction plate, centrifuged at 1,000 rpm for 1 min, and incubated at 25° C. for 15 min;
(§8) (7) 5 μl of the TK-substrate-biotin and ATP (the mixture prepared in step (6)) was added to initiate the reaction;
(§9) (8) The mixture was centrifuged at 1,000 g for 30 s; the plate was sealed, and incubated at 25° C. for 60 min;
(§10) (11) The mixture was centrifuged at 1,000 g for 1 min, and incubated at 25° C. for 60 min;
as §1, §2
(§11) Y=Bottom+(Top−Bottom)/(1+10^((LogIC50−X)*Hill Slope))
(§12) X-axis: logarithm of compound concentration; Y axis: inhibition rate ([…])

ALK^G1202R = ALK^G1202R (Homo sapiens, UniProt Q9UM73, G1202R); assay: Assay of activity on ALK kinase; type: biochemical; settings: kinase inhibition
Description: as §4, §5, §6, §7, §8, §9, §10, §1, §2, §11, §12

Ba/F3(EML4-ALK) cells = biological target: T1, Ba/F3(EML4-ALK) cells (Homo sapiens, UniProt Q9UM73); assay: Assay of activity on Ba/F3(EML4-ALK) cells (CTG, 72 h); type: cell-based; settings: read-out: IC50 (nM) Ba/F3(EML4-ALK)
T1 construct: fused on or other part: Q9HC35 (Echinoderm microtubule-associated protein-like 4)
In short: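 Ba/F3(EML4-ALK) cells, 700 per well, were exposed to 3-fold serial compound dilutions for 72 h at 37° C, 5% CO2, and viability was then read by CTG luminescence.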

[2] = biological target: Ba/F3(EGFR^Del19/T790M/C797S) cells (Homo sapiens, UniProt P00533, DEL746-750/T790M/C797S, cells depend on it); assay: Assay of activity on Ba/F3 cells (CTG, 72 h); type: cell-based; settings: read-out: IC50 (nM) Ba/F3 (EGFR^Del19/T790M/C797S)
In short: as §3

Sequence of ALK^G1202R (Q9UM73 19-1620 G1202R): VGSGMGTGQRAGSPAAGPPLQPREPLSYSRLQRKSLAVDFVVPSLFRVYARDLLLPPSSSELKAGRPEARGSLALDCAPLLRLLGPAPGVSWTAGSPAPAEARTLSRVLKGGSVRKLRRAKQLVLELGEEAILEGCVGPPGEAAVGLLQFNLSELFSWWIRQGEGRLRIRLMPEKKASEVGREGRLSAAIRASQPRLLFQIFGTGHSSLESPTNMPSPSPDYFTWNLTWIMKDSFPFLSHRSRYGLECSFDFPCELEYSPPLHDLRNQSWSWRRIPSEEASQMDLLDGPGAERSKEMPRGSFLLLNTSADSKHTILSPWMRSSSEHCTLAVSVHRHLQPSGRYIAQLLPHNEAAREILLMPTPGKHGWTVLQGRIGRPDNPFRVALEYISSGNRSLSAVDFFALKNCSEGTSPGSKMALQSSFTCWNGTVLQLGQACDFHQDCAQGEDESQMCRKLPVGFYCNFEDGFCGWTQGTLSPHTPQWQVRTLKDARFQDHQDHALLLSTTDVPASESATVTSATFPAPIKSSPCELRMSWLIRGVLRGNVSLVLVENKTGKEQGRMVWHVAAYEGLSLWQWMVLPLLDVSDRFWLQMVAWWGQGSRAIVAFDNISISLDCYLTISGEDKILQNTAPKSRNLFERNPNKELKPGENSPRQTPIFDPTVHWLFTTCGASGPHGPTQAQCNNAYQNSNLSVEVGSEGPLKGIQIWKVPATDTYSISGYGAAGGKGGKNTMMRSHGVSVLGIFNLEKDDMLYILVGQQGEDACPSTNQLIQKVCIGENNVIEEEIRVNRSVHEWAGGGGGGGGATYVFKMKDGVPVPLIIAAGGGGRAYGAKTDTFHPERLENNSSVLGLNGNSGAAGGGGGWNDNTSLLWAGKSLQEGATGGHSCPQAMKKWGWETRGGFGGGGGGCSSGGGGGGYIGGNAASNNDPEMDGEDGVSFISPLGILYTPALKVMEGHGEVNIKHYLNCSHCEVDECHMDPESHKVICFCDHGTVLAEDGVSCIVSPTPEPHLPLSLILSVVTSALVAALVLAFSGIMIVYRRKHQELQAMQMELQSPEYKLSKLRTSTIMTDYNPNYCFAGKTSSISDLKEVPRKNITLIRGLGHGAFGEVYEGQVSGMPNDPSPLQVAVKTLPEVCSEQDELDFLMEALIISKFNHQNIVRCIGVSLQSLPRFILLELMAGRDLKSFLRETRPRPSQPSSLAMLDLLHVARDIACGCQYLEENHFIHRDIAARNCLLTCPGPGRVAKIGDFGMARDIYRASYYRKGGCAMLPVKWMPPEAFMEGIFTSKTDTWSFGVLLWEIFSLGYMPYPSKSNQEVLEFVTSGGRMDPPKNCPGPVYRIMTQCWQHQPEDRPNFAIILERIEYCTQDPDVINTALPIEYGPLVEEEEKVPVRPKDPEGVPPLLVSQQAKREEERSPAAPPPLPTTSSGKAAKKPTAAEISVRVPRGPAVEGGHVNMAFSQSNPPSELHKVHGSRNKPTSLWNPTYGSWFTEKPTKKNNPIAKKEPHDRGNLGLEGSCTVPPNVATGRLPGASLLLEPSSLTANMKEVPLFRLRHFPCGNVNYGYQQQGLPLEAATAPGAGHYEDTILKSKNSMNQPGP
Sequence of Ba/F3(EGFR^Del19/T790M/C797S) cells (P00533 with tags, fused parts or gaps DEL746-750/T790M/C797S): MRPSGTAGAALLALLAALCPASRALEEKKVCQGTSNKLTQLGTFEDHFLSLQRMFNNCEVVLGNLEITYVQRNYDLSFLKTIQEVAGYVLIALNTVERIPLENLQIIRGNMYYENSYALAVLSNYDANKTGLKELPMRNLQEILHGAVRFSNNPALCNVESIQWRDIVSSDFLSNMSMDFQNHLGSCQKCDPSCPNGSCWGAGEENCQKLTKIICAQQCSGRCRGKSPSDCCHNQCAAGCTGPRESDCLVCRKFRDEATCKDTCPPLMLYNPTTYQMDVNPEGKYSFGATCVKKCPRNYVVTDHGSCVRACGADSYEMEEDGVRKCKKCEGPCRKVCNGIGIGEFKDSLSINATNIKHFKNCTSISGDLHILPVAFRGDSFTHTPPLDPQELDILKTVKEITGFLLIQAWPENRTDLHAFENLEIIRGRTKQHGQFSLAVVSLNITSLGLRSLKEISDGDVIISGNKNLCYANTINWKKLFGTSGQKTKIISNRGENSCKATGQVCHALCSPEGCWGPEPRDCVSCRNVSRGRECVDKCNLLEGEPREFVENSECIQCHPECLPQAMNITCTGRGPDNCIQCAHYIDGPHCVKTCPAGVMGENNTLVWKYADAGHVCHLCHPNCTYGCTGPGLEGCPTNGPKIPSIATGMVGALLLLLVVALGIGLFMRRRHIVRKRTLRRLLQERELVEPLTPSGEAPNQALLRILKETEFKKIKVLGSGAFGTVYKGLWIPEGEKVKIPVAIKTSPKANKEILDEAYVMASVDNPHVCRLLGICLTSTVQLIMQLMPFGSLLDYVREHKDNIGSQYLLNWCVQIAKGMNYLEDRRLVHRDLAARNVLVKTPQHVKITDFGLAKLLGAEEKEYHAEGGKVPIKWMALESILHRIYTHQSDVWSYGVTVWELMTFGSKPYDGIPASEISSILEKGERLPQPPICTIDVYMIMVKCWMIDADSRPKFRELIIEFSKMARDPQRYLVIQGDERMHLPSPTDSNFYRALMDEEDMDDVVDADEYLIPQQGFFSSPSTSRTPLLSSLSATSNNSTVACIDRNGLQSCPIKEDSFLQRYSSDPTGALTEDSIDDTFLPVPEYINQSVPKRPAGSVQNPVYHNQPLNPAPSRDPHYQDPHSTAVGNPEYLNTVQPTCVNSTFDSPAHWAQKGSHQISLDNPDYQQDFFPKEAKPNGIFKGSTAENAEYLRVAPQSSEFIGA
Sequence of EGFR^L858R/T790M/C797S (P00533 25-1210 T790M/C797S/L858R): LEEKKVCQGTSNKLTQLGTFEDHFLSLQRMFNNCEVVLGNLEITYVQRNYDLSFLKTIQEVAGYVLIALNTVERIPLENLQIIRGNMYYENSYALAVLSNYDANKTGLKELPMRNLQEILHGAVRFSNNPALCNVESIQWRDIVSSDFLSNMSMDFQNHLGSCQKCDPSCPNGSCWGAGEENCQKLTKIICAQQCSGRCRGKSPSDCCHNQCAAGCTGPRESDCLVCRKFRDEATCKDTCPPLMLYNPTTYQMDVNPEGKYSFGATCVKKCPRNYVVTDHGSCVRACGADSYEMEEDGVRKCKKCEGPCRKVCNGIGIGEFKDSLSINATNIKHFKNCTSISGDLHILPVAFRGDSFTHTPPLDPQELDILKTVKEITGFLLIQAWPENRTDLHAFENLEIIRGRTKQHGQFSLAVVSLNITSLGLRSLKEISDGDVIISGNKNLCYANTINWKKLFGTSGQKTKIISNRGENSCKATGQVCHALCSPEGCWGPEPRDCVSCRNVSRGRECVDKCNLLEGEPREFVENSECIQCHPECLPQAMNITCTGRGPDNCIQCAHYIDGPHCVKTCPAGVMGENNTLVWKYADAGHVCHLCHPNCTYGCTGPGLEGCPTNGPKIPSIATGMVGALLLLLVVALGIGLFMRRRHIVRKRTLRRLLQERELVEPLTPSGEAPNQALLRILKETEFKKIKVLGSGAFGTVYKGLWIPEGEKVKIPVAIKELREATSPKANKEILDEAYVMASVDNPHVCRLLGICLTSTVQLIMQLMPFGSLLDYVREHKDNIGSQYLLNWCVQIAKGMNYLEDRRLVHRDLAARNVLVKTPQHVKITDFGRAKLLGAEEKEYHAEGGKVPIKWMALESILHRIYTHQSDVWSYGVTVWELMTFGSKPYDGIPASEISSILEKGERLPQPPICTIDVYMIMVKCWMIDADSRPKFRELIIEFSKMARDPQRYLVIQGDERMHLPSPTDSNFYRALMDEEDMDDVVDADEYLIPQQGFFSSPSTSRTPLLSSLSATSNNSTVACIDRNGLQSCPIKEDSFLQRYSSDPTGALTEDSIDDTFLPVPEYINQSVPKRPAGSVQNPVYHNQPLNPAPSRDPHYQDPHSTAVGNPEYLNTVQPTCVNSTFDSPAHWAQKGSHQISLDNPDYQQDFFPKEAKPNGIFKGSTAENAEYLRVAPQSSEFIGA
Sequence of ALK (Q9UM73 19-1620): as the sequence (Q9UM73 19-1620 G1202R) above, with R1184G counted along it
Sequence of EGFR^Del19/T790M/C797S (P00533 with tags, fused parts or gaps DEL746-750/T790M/C797S): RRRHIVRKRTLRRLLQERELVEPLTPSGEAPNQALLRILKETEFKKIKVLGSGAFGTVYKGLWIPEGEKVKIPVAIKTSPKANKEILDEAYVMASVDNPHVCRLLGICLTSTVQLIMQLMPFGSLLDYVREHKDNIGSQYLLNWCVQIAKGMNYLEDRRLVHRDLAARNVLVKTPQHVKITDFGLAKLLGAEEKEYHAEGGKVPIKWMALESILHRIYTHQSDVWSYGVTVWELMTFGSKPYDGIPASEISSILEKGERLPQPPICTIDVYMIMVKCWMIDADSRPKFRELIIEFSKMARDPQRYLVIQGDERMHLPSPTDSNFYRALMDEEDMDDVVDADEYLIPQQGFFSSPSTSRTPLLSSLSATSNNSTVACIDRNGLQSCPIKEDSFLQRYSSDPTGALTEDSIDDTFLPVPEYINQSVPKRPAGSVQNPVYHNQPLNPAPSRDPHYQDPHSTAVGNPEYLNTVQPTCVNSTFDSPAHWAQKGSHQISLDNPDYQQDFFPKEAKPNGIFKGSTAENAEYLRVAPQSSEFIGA

Compound	IC50 (EGFR^Del19/T790M/C797S)	IC50 (EGFR^L858R/T790M/C797S)	GI50 [1]	IC50 (ALK)	IC50 (ALK^G1202R)	GI50 (Ba/F3(EML4-ALK) cells)	GI50 [2]
COc1cc(N2CCC(N3CCN(C(=O)CCCCCCc4cccc5c4C(=O)N(C4CCC(=O)NC4=O)C5=O)CC3)CC2)ccc1Nc1ncc(Cl)c(Nc2ccccc2P(C)(C)=O)n1 (stereo not shown) [Compound A1, 4-(7-(4-(1-(4-((5-chloro-4-((2-(dimethylphosphoryl)phenyl)amino)pyrimidin-2-yl)amino)-3-methoxyphenyl)piperidin-4-yl)piperazin-1-yl)-7-oxoheptyl)-2-(2,6-dioxopiperidin-3-yl)isoindoline-1,3-dione]	101 to 200 nM	1 to 100 nM	201 to 300 nM	101 to 200 nM			
COc1cc(N2CCC(N3CCN(C(=O)CCCCCCOc4cccc5c4C(=O)N(C4CCC(=O)NC4=O)C5=O)CC3)CC2)ccc1Nc1ncc(Cl)c(Nc2ccccc2P(C)(C)=O)n1 (stereo not shown) [Compound A2, 4-((7-(4-(1-(4-((5-chloro-4-((2-(dimethylphosphoryl)phenyl)amino)pyrimidin-2-yl)amino)-3-methoxyphenyl)piperidin-4-yl)piperazin-1-yl)-7-oxoheptyl)oxy)-2-(2,6-dioxopiperidin-3-yl)isoindoline-1,3-dione]	101 to 200 nM	1 to 100 nM	201 to 300 nM	1 to 100 nM			
COc1cc(N2CCC(N3CCN(CCOCCOCCOCCNC(=O)COc4cccc5c4C(=O)N(C4CCC(=O)NC4=O)C5=O)CC3)CC2)ccc1Nc1ncc(Cl)c(Nc2ccccc2P(C)(C)=O)n1 (stereo not shown) [Compound A3, N-(2-(2-(2-(2-(4-(1-(4-((5-chloro-4-((2-(dimethylphosphoryl)phenyl)amino)pyrimidin-2-yl)amino)-3-methoxyphenyl)piperidin-4-yl)piperazin-1-yl)ethoxy)ethoxy)ethoxy)ethyl)-2-((2-(2,6-dioxopiperidin-3-yl)-1,3-dioxoisoindolin-4-yl)oxy)acetamide]	1 to 100 nM	1 to 100 nM					
COc1cc(N2CCC(N3CCN(CCCCCCCNc4cccc5c4CN(C4CCC(=O)NC4=O)C5=O)CC3)CC2)ccc1Nc1ncc(Cl)c(Nc2ccccc2P(C)(C)=O)n1 (stereo not shown) [Compound A12, 3-(4-((7-(4-(1-(4-((5-chloro-4-((2-(dimethylphosphoryl)phenyl)amino)pyrimidin-2-yl)amino)-3-methoxyphenyl)piperidin-4-yl)piperazin-1-yl)heptyl)amino)-1-oxoisoindolin-2-yl)piperidine-2,6-dione]		1 to 100 nM	1 to 100 nM	1 to 100 nM	101 to 200 nM	1 to 100 nM	
COc1cc(N2CCC(N3CCN(CCCCCCCCCNc4cccc5c4CN(C4CCC(=O)NC4=O)C5=O)CC3)CC2)ccc1Nc1ncc(Cl)c(Nc2ccccc2P(C)(C)=O)n1 (stereo not shown) [Compound A13, 3-(4-((9-(4-(1-(4-((5-chloro-4-((2-(dimethylphosphoryl)phenyl)amino)pyrimidin-2-yl)amino)-3-methoxyphenyl)piperidin-4-yl)piperazin-1-yl)nonyl)amino)-1-oxoisoindolin-2-yl)piperidine-2,6-dione]		101 to 200 nM	101 to 200 nM	1 to 100 nM	> 300 nM	1 to 100 nM	
COc1cc(N2CCC(N3CCN(CC(=O)Nc4cccc5c4CN(C4CCC(=O)NC4=O)C5=O)CC3)CC2)ccc1Nc1ncc(Cl)c(Nc2ccccc2P(C)(C)=O)n1 (stereo not shown) [Compound A17, 2-(4-(1-(4-((5-chloro-4-((2-(dimethylphosphoryl)phenyl)amino)pyrimidin-2-yl)amino)-3-methoxyphenyl)piperidin-4-yl)piperazin-1-yl)-N-(2-(2,6-dioxopiperidin-3-yl)-1-oxoisoindolin-4-yl)acetamide]	1 to 100 nM	1 to 100 nM					
COc1cc(N2CCC(N3CCN(CCCCC#Cc4cccc5c4CN(C4CCC(=O)NC4=O)C5=O)CC3)CC2)ccc1Nc1ncc(Cl)c(Nc2ccccc2P(C)(C)=O)n1 (stereo not shown) [Compound C116, 3-(4-(6-(4-(1-(4-((5-chloro-4-((2-(dimethylphosphoryl)phenyl)amino)pyrimidin-2-yl)amino)-3-methoxyphenyl)piperidin-4-yl)piperazin-1-yl)hex-1-yn-1-yl)-1-oxoisoindolin-2-yl)piperidine-2,6-dione]	1 to 100 nM	1 to 100 nM		1 to 100 nM	201 to 300 nM	1 to 100 nM	1 to 100 nM
COc1cc(N2CCC(N3CCN(CCCCCCC#Cc4cccc5c4CN(C4CCC(=O)NC4=O)C5=O)CC3)CC2)ccc1Nc1ncc(Cl)c(Nc2ccccc2P(C)(C)=O)n1 (stereo not shown) [Compound C177, 3-(4-(8-(4-(1-(4-((5-chloro-4-((2-(dimethylphosphoryl)phenyl)amino)pyrimidin-2-yl)amino)-3-methoxyphenyl)piperidin-4-yl)piperazin-1-yl)oct-1-yn-1-yl)-1-oxoisoindolin-2-yl)piperidine-2,6-dione]	1 to 100 nM	1 to 100 nM		1 to 100 nM	201 to 300 nM	1 to 100 nM	1 to 100 nM
COc1cc(N2CCC(N3CCN(CCCCCCCC#Cc4cccc5c4CN(C4CCC(=O)NC4=O)C5=O)CC3)CC2)ccc1Nc1ncc(Cl)c(Nc2ccccc2P(C)(C)=O)n1 (stereo not shown) [Compound C178, 3-(4-(9-(4-(1-(4-((5-chloro-4-((2-(dimethylphosphoryl)phenyl)amino)pyrimidin-2-yl)amino)-3-methoxyphenyl)piperidin-4-yl)piperazin-1-yl)non-1-yn-1-yl)-1-oxoisoindolin-2-yl)piperidine-2,6-dione]	1 to 100 nM	1 to 100 nM		1 to 100 nM	201 to 300 nM	1 to 100 nM	1 to 100 nM
COc1cc(N2CCC3(CCN(CCCCC#Cc4cccc5c4CN(C4CCC(=O)NC4=O)C5=O)CC3)CC2)c(C)cc1Nc1ncc(Br)c(Nc2ccc3nccnc3c2P(C)(C)=O)n1 (stereo not shown) [Compound C187, 3-(4-(6-(9-(4-((5-bromo-4-((5-(dimethylphosphoryl)quinoxalin-6-yl)amino)pyrimidin-2-yl)amino)-5-methoxy-2-methylphenyl)-3,9-diazaspiro[5.5]undecan-3-yl)hex-1-yn-1-yl)-1-oxoisoindolin-2-yl)piperidine-2,6-dione]	1 to 100 nM	1 to 100 nM				1 to 100 nM	1 to 100 nM
COc1cc(N2CCC(N3CCN(CCOCC#Cc4ccc5c(c4)CN(C4CCC(=O)NC4=O)C5=O)CC3)CC2)ccc1Nc1ncc(Cl)c(Nc2ccccc2P(C)(C)=O)n1 (stereo not shown) [Compound C193, 3-(5-(3-(2-(4-(1-(4-((5-chloro-4-((2-(dimethylphosphoryl)phenyl)amino)pyrimidin-2-yl)amino)-3-methoxyphenyl)piperidin-4-yl)piperazin-1-yl)ethoxy)prop-1-yn-1-yl)-1-oxoisoindolin-2-yl)piperidine-2,6-dione]				1 to 100 nM	201 to 300 nM	1 to 100 nM	1 to 100 nM
COc1cc(N2CCC(N3CCN(CCCCCCC#Cc4ccc5c(c4)CN(C4CCC(=O)NC4=O)C5=O)CC3)CC2)ccc1Nc1ncc(Cl)c(Nc2ccccc2P(C)(C)=O)n1 (stereo not shown) [Compound C194, 3-(5-(8-(4-(1-(4-((5-chloro-4-((2-(dimethylphosphoryl)phenyl)amino)pyrimidin-2-yl)amino)-3-methoxyphenyl)piperidin-4-yl)piperazin-1-yl)oct-1-yn-1-yl)-1-oxoisoindolin-2-yl)piperidine-2,6-dione]				1 to 100 nM	> 300 nM	1 to 100 nM	1 to 100 nM
